In brackets after ≈: the same amount, converted by molar mass. Read-outs that look alike come from different tables or passages of the source.
How the values were obtained:
HCT116 cells [1] = test: SRB cytotoxicity assay, HCT116; format: cell-based, human; settings: for IC50: Homo sapiens, HCT-116, read-out: IC50 against HCT116
Protocol: (§1) Breast carcinoma MCF-7 and colorectal cancer HCT116 cell lines were used in this study. Cancer cell lines were obtained frozen in liquid nitrogen (−180°C) from the American Type Culture Collection (ATCC). The tumor cell line was maintained by serial subculturing in RPMI 1640 media containing 10% […] at the National Cancer Institute, Cairo, Egypt.
(§2) Cytotoxicity assay was carried out according to the reported literature, where the sensitivity of the MCF-7 and HCT116 cell lines to the tested compounds and their combination was determined by the SRB assay. In brief, cells were seeded at a density of 3 × 10^3 cells/well in 96-well microtiter plates. Cells were left to attach for 24 hours before incubation with drugs. Next, they were treated with different concentrations of the tested compounds (10, 20, 30, 40, 50, and 100 μM).
(§3) Control cells containing 200 μl/well of DMSO (0.1% v/v) were used similarly. At the end of incubation, cells were fixed with 20% trichloroacetic acid (TCA), stained with 0.4% Sulforhodamine B (SRB), and rinsed with 1% acetic acid. The bound protein stain was solubilized with Tris base (10 mM, pH 10.5) and the optical density (OD) of each well was measured spectrophotometrically at 570 nm using ELISA microplate reader (TECAN, Sunrise^TM, Germany). The fraction of cell survival was calculated as follows.
(§4) Survival fraction = OD treated/OD control. […] Each experiment was repeated 3 times.

MCF-7 cells [2] = test: SRB cytotoxicity assay, MCF-7; format: cell-based; settings: Homo sapiens, MCF7, read-out: IC50 against MCF-7
Protocol: as §1, §2, §3, §4

[3] = Equilibrium solubility in buffer solutions (UV); format: physicochemical; settings: thermodynamic from solid, 37 °C, read-out: Mean solubility ± SD
Protocol: UV measurements were performed on single beam spectrophotometer (Jenway, model 6305, UK). Equilibrium solubility was performed through using digital precise shaking water bath (DAIHAN Scientific Co., model WSB-45, Republic of Korea).
A powdered sample (20 mg), of each of the tested compounds [3, 5–10, and griseofulvin 1], was accurately weighed and dissolved in 100 ml of methanol to prepare 200 μg/ml stock solution. Compound solutions (20 μg/ml) in the investigated media (buffer solutions of pH 1.2 and 6.8) were prepared from stock solution after appropriate dilution. The prepared solutions were scanned in the UV-Vis region (200–800 nm) to determine the wavelength of maximum absorption (λmax) in each medium.
Solutions containing different concentrations of the investigated compound were prepared from stock solution after appropriate dilution with the investigated buffer solutions. The UV absorbance of the prepared sample solutions was measured at λmax of the investigated compound using the investigated buffer solution as a reference solution (blank). The determined absorbance values were plotted versus the corresponding concentrations to construct the standard calibration curves.
Equilibrium solubility of each of the tested compounds was determined by placing an excess amount of the compound in stoppered glass volumetric flask containing 10 ml of the investigated buffer solution. The solutions were shaken at a rate of (40 ± 2) stroke/minute in a thermostatically controlled water bath at 37 ± 0.5°C for 24 hours to ensure equilibrium. Samples of 2 ml were withdrawn from each test solution, filtered immediately, and assayed spectrophotometrically at the determined λmax of the investigated compound.

centrosomal clustering = tested on: centrosomal clustering; design: method as in PMID 22191585, PMID 19402668; settings: cited from earlier work
MCF-7 cells [4] = test: Combination of compound 9 with tamoxifen (SRB, combination index); format: cell-based, human
Protocol: (§5) Estrogen-dependent breast cancer represents 70% of all types of breast cancer. […] Combination therapy is used in order to prevent resistance or recurrence. […] Similar study was performed for evaluation of combination effect of compound 9 with 5-fluorouracil on HCT116 cells proliferation (Figure 1).
as §2
(§6) CI was employed to determine whether the compounds interacted synergistically, additively, or antagonistically. […] If “CI” is less than 1, the effect of combination is synergistic, whereas if CI = 1 or >1, the effect is additive or antagonistic, respectively.

HCT116 cells [5] = test: Combination of compound 9 with 5-fluorouracil (SRB, combination index); format: cell-based, human
Protocol: as §5, §2, §6

MCF-7 cells [6] = test: Apoptosis, Annexin V-FITC/PI flow cytometry; format: cell-based, human; settings: MCF-7, 21.5 μM, 48 hrs
Protocol: In order to study the effect of compound 9 on apoptosis, MCF-7 cells were treated with compound 9 (21.5 μM) for 48 hrs and harvested for fluorescence microscopic and flow cytometric analysis of Annexin V-FITC/propidium iodide (PI) staining. […] The percentage of apoptotic cells was 2.65% in control untreated MCF-7 cells and 31.75% after treatment with compound 9.
In brief, untreated and treated MCF-7 cells (21.5 μM of 9) were harvested and resuspended in calcium buffer at a concentration of 1 × 10^6 cells/ml. Annexin V-FITC (10 μl) was added to 100 μl of cells. The tubes were incubated for 20 min in the dark. The cells were then washed with calcium buffer and propidium iodide (10 μl) was added to each tube and incubated for at least 10 min on ice. Samples were analyzed by FACScan flow cytometer (Becton-Dickinson, San Jose, CA, USA) using CellQuest software (Becton-Dickinson, San Jose, CA).

[7] = buffer solution pH 1.2, simulated gastric fluid, pH 1.2 buffer solution
[8] = buffer solution pH 6.8, aqueous buffer, pH 6.8 buffer solution

| solubility at 24 h [3, 7] [µg/mL] | solubility at 24 h [3, 8] [µg/mL] | Structure (SMILES) | IC50 (HCT116 cells [1]) [µM] | IC50 (MCF-7 cells [2]) [µM] | increase in activity as a centrosome clustering inhibitor compared to 1 (centrosomal clustering) [fold] | increase in activity over 5-fluorouracil against HCT116 (HCT116 cells [1]) [fold] | combination index (CI) (MCF-7 cells [4]; half of IC50 of compound 9 + quarter of IC50 of tamoxifen) | combination index (CI) (MCF-7 cells [4]; quarter of IC50 of compound 9 + half of IC50 of tamoxifen) | combination index (CI) (HCT116 cells [5]; half of IC50 of compound 9 + quarter of IC50 of 5-fluorouracil) | combination index (CI) (HCT116 cells [5]; quarter of IC50 of compound 9 + half of IC50 of 5-fluorouracil) | percentage of apoptotic cells (MCF-7 cells [6]) [%] |
| --- | --- | --- | --- | --- | --- | --- | --- | --- | --- | --- | --- |
| 14.3 ± 0.42 | 27.94 ± 0.27 | COc1cc(OC)c2c(c1Cl)O[C@]1(C2=O)C(OCc2ccccc2)=CC(=NOCC(=O)O)C[C@H]1C (mixture of isomers) [Compound 5, 2-(((E/Z)-[(2S,6′R)2′-Benzyloxy-7-chloro-4,6-dimethoxy-6′-methyl-3-oxo-3H-spiro[benzofuran-2,1′-cyclohex[2′]en]-4′-ylidene]amino)oxy) Acetic Acid] | > 100 | 20.7 | – | – | – | – | – | – | – |
| 14.86 ± 0.12 | 14.5 ± 0.39 | COC1=CC(=NNC(N)=O)C[C@@H](C)[C@]12Oc1c(Cl)c(OC)cc(OC)c1C2=O (mixture of isomers) [Compound 6, (E/Z)-2-((2S,6′R)-7-Chloro-2′,4,6-trimethoxy-6′-methyl-3-oxo-3H-spiro[benzofuran-2,1′-cyclohex[2′]en]-4′-ylidene)hydrazine-1-carboxamide] | 87.8 | 55.9 | – | – | – | – | – | – | – |
| 29.1 ± 0.72 | 12.5 ± 0.54 | COC1=CC(=NNC(=O)c2ccncc2)C[C@@H](C)[C@]12Oc1c(Cl)c(OC)cc(OC)c1C2=O (mixture of isomers) [Compound 8, (E/Z)-N′-((2S,6′R)-7-Chloro-2′,4,6-trimethoxy-6′-methyl-3-oxo-3H-spiro[benzofuran-2,1′-cyclohex[2′]en]-4′-ylidene)isonicotinic Acid Hydrazide] | 39.8 | 25.3 | – | – | – | – | – | – | – |
| 14 ± 0.31 (≈ 28.7 µM) | 13.78 ± 0.07 (≈ 28.4 µM) | COc1cc(OC)c2c(c1Cl)OC1(C2=O)C(OCc2ccccc2)=CC(=NNC(N)=O)CC1C [Compound 9, 2-((2S,6′R)-2′-Benzyloxy-7-chloro-4,6-dimethoxy-6′-methyl-3-oxo-3H-spiro[benzofuran-2,1′-cyclohex[2′]en]-4′-ylidene)hydrazine-1-carboxamide] | 10.5 | 21.5 | – | 2 | 0.25 ± 0.03 | 0.17 ± 0.06 | 0.37 ± 0.07 | 0.2 ± 0.06 | 31.75 |
| 26.7 ± 0.57 (≈ 55 µM) | 16.6 ± 0.58 (≈ 34.2 µM) | COc1cc(OC)c2c(c1Cl)OC1(C2=O)C(OCc2ccccc2)=CC(=NNC(=N)N)CC1C [Compound 10, 2-((2S,6′R)-2′-Benzyloxy-7-chloro-4,6-dimethoxy-6′-methyl-3-oxo-3H-spiro[benzofuran-2,1′-cyclohex[2′]en]-4′-ylidene)hydrazine-1-carboximidamide] | 8.39 | 14.5 | – | 2 | – | – | – | – | – |

More lines, now with the values behind:

| Structure (SMILES) | solubility at 24 h [3, 7] [µg/mL] | solubility at 24 h [3, 8] [µg/mL] | IC50 (HCT116 cells [1]) [µM] | IC50 (MCF-7 cells [2]) [µM] | increase in activity as a centrosome clustering inhibitor compared to 1 (centrosomal clustering) [fold] | increase in activity over 5-fluorouracil against HCT116 (HCT116 cells [1]) [fold] | combination index (CI) (MCF-7 cells [4]; half of IC50 of compound 9 + quarter of IC50 of tamoxifen) | combination index (CI) (MCF-7 cells [4]; quarter of IC50 of compound 9 + half of IC50 of tamoxifen) | combination index (CI) (HCT116 cells [5]; half of IC50 of compound 9 + quarter of IC50 of 5-fluorouracil) | combination index (CI) (HCT116 cells [5]; quarter of IC50 of compound 9 + half of IC50 of 5-fluorouracil) | percentage of apoptotic cells (MCF-7 cells [6]) [%] |
| --- | --- | --- | --- | --- | --- | --- | --- | --- | --- | --- | --- |
| O=c1[nH]cc(F)c(=O)[nH]1 [5-Fluorouracil, reference compound] | – | – | 19.5 | – | – | – | – | – | – | – | – |
| COC1=CC(=O)C[C@@H](C)[C@]12Oc1c(Cl)c(OC)cc(OC)c1C2=O [Compound 1, Griseofulvin] | 12.3 ± 0.29 (≈ 34.9 µM) | 12.4 ± 0.26 (≈ 35.1 µM) | 35.5 | 69 | – | – | – | – | – | – | – |
| COc1cc(OC)c2c(c1Cl)O[C@]1(C2=O)C(OCc2ccccc2)=CC(=O)C[C@H]1C [Compound 3, (2S,6′R)-2′-Benzyloxy-7-chloro-4,6-dimethoxy-6′-methyl-3H-spiro[benzofuran-2,1′-cyclohex[2′]en]-3,4′-dione, reference compound] | 11.1 ± 0.37 (≈ 26 µM) | 11.1 ± 0.82 (≈ 25.9 µM) | 35.8 | 32.8 | 25 | – | – | – | – | – | – |
| COC1=CC(=NNC(=N)N)C[C@@H](C)[C@]12Oc1c(Cl)c(OC)cc(OC)c1C2=O [Compound 7, 2-((2S,6′R)-7-Chloro-2′,4,6-trimethoxy-6′-methyl-3-oxo-3H-spiro[benzo-furan-2,1′-cyclohex[2′]en]-4′-ylidene)hydrazine-1-carboximidamide] | – | – | 85.6 | 54.5 | – | – | – | – | – | – | – |

— PMC5738580, “Design, Synthesis, and Cytotoxicity Evaluation of Novel Griseofulvin Analogues with Improved Water Solubility” (International Journal of Medicinal Chemistry, 2017)
